Source: patent US20150010479A1, “TREATMENT OF MICROBIAL INFECTIONS” (SINCLAIR PHARMACEUTICALS LIMITED, priority 2012, published 2015)
Values joined by “and” are separate entries in the source; they are usually repeats but may differ in a detail not shown here. Equal values may be shown once. Read-outs that look alike come from different tables or passages of the source.

Experiments:
Prv. nigrescence [1] = experiment: CPC and delmopinol combination (chequerboard assay), FICi/FBCi; type: cell-based, Prevotella nigrescence
Method: (§1) 190 μl of normal broth (standard assays) or broth A was added to wells of a 96 well plate. […] 5 μl of each dilution of delmopinol was added to the appropriate wells of the 96 wells plate. The contents of each well were mixed thoroughly and then 100 μl volume was discarded.
(§2) Plates were then incubated as described above. […] Following incubation the plates were examined and growth/no growth recorded for every well sample (used for FBC determination).
(§3) FBCi were calculated in the same manner but using MBC data.
(§4) The FICi and FBCi were interpreted using the same parameters as set out above.

C. albicans [2] = experiment: as above; type: cell-based, Candida albicans; conditions: CPC + delmopinol
Method: as §1, §2, §3, §4

P. gingivalis [3] = experiment: as above; type: cell-based, Porphyromonas gingivalis; conditions: CPC + delmopinol, Standard broth
Method: as §1, §2, §3, §4

E. faecalis = experiment: MIC/MBC of CPC or delmopinol alone; type: cell-based, Entercoccus faecalis; conditions: Enterococcus faecalis, compound alone
Method: (§5) The final mixture was then sterilized by filtration using a […] PES filter (Nalgene, 169-0045).
(§6) Bacterial preparations were prepared using freshly grown cultures on solid media. Several loop-fulls of culture were transferred to 10-20 ml of the appropriate broth and vortexed gently until a fine suspension was produced. The initial OD600 nm of the cell suspensions was measured and adjusted to 0.2 to give a colony count of 1×10^8 cfu/ml. Final inocula were prepared by diluting the adjusted cell suspensions in appropriate broth as detailed below:
(§7) The broths were added to wells in columns 1, 11 (negative control, broth only) and 12 (positive control).
(§8) 100 μl of normal broth (standard assay) or broth A was added to wells in columns 2-10.
(§9) After mixing in column 10, 100 μl was discarded. 5 μl of the appropriate solvent was added to wells in column 12, mixed and 100 μl discarded.
(§10) Finally, 100 μl of inoculum (prepared in either normal broth or 2× broth A) was added to the wells in columns 1-10 and 12 and the plates were incubated as described above.

E. coli = experiment: MIC/MBC of CPC or delmopinol alone; type: cell-based; conditions: Escherichia coli, compound alone
Method: as §5, §6, §7, §8, §9, §10

C. albicans [4] = experiment: MIC/MBC of CPC or delmopinol alone; type: cell-based; conditions: Candida albicans, compound alone
Method: as §5, §6, §7, §8, §9, §10

Prv. nigrescence [5] = experiment: MIC/MBC of CPC or delmopinol alone; type: cell-based; conditions: Prevotella, compound alone
Method: as §5, §6, §7, §8, §9, §10

S. aureus = experiment: MIC/MBC of CPC or delmopinol alone; type: cell-based; conditions: Staphylococcus aureus
Method: as §5, §6, §7, §8, §9, §10

P. gingivalis [6] = experiment: MIC/MBC of CPC or delmopinol alone; type: cell-based; conditions: Porphyromonas gingivalis
Method: as §5, §6, §7, §8, §9, §10

[7] = Decapinol base (Broth A), no delmopinol or sodium benzoate present, read-out: Activity alone Decapinol base MBC
[8] = Decapinol base (Broth A), no delmopinol or sodium benzoate present, read-out: Activity alone Decapinol base MIC
[9] = Standard broth, read-out: Activity alone Standard MBC
[10] = Standard broth, read-out: Activity alone Standard MIC

`CCCCCCCCCCCCCCCC[n+]1ccccc1` [CPC, cetylpyridinium chloride] was tested, and the “Combination with delmopinol (FIC) Decapinol base FBCi” value (Prv. nigrescence [1]) was 0.53p, the “Combination with delmopinol (FIC) Decapinol base FICi” value (Prv. nigrescence [1]) was 0.5 s and the “Combination with delmopinol (FIC) Standard FBCi” value (Prv. nigrescence [1]) was 0.79. For the same compound, the “Combination with delmopinol (FIC) Decapinol base FBCi” value (C. albicans [2]; Decapinol base (Broth A)) was 0.65p, the “Combination with delmopinol (FIC) Decapinol base FICi” value (C. albicans [2]; Decapinol base (Broth A)) was 0.99 and the “Combination with delmopinol (FIC) Standard FBCi” value (C. albicans [2]; Standard broth) was 0.68p. The “Combination with delmopinol (FIC) Standard FICi” value (P. gingivalis [3]) was 0.62p.

For `CCCC(CCC)CCCC1COCCN1CCO` (centres unmarked) [Delmopinol, 3-(4-propylheptyl)-4-(2-hydroxyethyl)morpholine], the MBC (E. faecalis; [7]) was 250 µg/mL and 920 µM, the MIC (E. faecalis; [8]) was 250 µg/mL and 920 µM and the MBC (E. faecalis; [9]) was 250 µg/mL and 920 µM. The MIC (E. faecalis; [10]) was 250 µg/mL and 920 µM, the MBC (E. coli; [7]) was 250 µg/mL and 920 µM and the MIC (E. coli; [8]) was 250 µg/mL and 920 µM. For the same compound, the MBC (E. coli; [9]) was 250 µg/mL and 920 µM, the MIC (E. coli; [10]) was 250 µg/mL and 920 µM and the MBC (C. albicans [4]; [7]) was 120 µg/mL and 460 µM. For the same compound, the MIC (C. albicans [4]; [8]) was 120 µg/mL and 460 µM, the MBC (C. albicans [4]; [9]) was 500 µg/mL and 1840 µM and the MIC (C. albicans [4]; [10]) was 500 µg/mL and 1840 µM. The MBC (Prv. nigrescence [5]; [7]) was 125 µg/mL and 460 µM, the MIC (Prv. nigrescence [5]; [8]) was 31.2 µg/mL and 120 µM and the MBC (Prv. nigrescence [5]; [9]) was 62.5 µg/mL and 230 µM. The MIC (Prv. nigrescence [5]; [10]) was 62.5 µg/mL and 230 µM, the MIC (S. aureus; read-out: Activity alone Standard MIC) was 125 µg/mL and the MBC (S. aureus; S. aureus, compound alone, Decapinol base (Broth A), no delmopinol or sodium benzoate present, read-out: Activity alone Decapinol base MBC) was 250 µg/mL and 920 µM. The MIC (S. aureus; S. aureus, compound alone, Decapinol base (Broth A), no delmopinol or sodium benzoate present, read-out: Activity alone Decapinol base MIC) was 250 µg/mL and 920 µM, the MBC (S. aureus; S. aureus, compound alone, Standard broth, read-out: Activity alone Standard MBC) was 250 µg/mL and 920 µM and the MIC (S. aureus; S. aureus, compound alone, Standard broth, read-out: Activity alone Standard MIC) was 460 µM. It also gave an MBC (P. gingivalis [6]; read-out: Activity alone Decapinol base MBC) of 31.2 µg/mL, an MIC (P. gingivalis [6]; read-out: Activity alone Decapinol base MIC) of 31.2 µg/mL and an MBC (P. gingivalis [6]; read-out: Activity alone Standard MBC) of 31.2 µg/mL. It also gave an MBC (P. gingivalis [6]; P. gingivalis, compound alone, Decapinol base (Broth A), no delmopinol or sodium benzoate present, read-out: Activity alone Decapinol base MBC) of 120 µM, an MIC (P. gingivalis [6]; P. gingivalis, compound alone, Decapinol base (Broth A), no delmopinol or sodium benzoate present, read-out: Activity alone Decapinol base MIC) of 1.2 µM and an MBC (P. gingivalis [6]; P. gingivalis, compound alone, Standard broth, read-out: Activity alone Standard MBC) of 120 µM. For the same compound, the MIC (P. gingivalis [6]; P. gingivalis, compound alone, Standard broth, read-out: Activity alone Standard MIC) was 1.95 µg/mL.
